According to patent US20190071416A1, “COMPOUNDS FOR TREATMENT OF CANCER AND EPIGENETICS” (Agency For Science, Technology and Research, priority 2015, published 2019):

target: T1, SMYD3 (Homo sapiens, UniProt Q9H7B4); test: SMYD3 biochemical assay (MTase-Glo, MAP3K2 peptide substrate); conditions: Table 3; MTase assay, MAP3K2 peptide substrate; read-out: IC50
T1 sequence (Q9H7B4 1-428): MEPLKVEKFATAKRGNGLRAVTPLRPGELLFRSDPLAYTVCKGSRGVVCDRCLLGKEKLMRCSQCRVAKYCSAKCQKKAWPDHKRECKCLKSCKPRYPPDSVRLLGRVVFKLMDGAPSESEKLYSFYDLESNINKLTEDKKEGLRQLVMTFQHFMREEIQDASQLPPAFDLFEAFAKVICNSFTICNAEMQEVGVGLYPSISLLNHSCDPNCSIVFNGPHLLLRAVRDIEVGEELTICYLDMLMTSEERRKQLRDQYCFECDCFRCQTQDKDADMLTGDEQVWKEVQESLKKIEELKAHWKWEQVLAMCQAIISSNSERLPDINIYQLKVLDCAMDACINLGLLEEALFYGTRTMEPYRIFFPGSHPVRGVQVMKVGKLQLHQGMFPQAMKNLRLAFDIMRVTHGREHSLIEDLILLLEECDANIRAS
Procedure: A SMYD3 enzymatic assay was developed using Promega's Methyltransferase-Glo™ reagents. In the assay, SMYD3 catalyzes the methylation of the MAP3K2 peptide substrate by transferring a methyl group from SAM to MAP3K2 peptide and further converts the SAM to SAH. The SMYD3 methyltransferase activity is measured based on the amount of SAH produced from the reaction through the use of coupling enzymes that convert the SAH to ATP. The MTase-Glo detection solution then catalyzes the formation of light from ATP.
A final concentration of 1.0 μM and 10 μM SAM and MAP3K2 peptide were added and further incubated for 30 min at room temperature before adding the MTase Glo and detection reagent. Reaction signals were detected using microplate readers on luminescent mode (Safire Tecan). The IC50 was determined by non-linear regression, using GraphPad Prism version, 5.03.

Row | Compound | IC50 [nM]
1 | CCCOC(=O)N1CCN(C(=O)c2ccc3c(Cl)c4c(nc3c2)CCCC4)C(C)C1C (stereo not drawn) [A033, Propyl 4-(9-chloro-5,6,7,8-tetrahydroacridine-3-carbonyl)-2,3-dimethylpiperazine-1-carboxylate] | 1800
2 | CCCOC(=O)N1CCN(C(=O)c2ccc3c(Cl)c4c(nc3c2)CCC(CC(=O)OC)C4)CC1 (stereo not drawn) [A034, Propyl 4-(9-chloro-7-(2-methoxy-2-oxoethyl)-5,6,7,8-tetrahydroacridine-3-carbonyl)piperazine-1-carboxylate] | 380
3 | CCCOC(=O)N1CCN(C(=O)c2ccc3c(Cl)c4c(nc3c2)CCCC4)CC1(C)C [A035, Propyl 4-(9-chloro-5,6,7,8-tetrahydroacridine-3-carbonyl)-2,2-dimethylpiperazine-1-carboxylate] | 8200
4 | CCCOC(=O)N1CCN(C(=O)c2ccc3c(Cl)c4c(nc3c2)CCCC4)CC12CC2 [A036, Propyl 7-(9-chloro-5,6,7,8-tetrahydroacridine-3-carbonyl)-4,7-diazaspiro[2.5]octane-4-carboxylate] | 6700
5 | CCCOC(=O)N1CCN(C(=O)c2ccc3c(Cl)c4c(nc3c2)CCCC4)C2(CC2)C1 [A037, Propyl 4-(9-chloro-5,6,7,8-tetrahydroacridine-3-carbonyl)-4,7-diazaspiro[2.5]octane-7-carboxylate] | 8400
6 | CCCCOC(=O)N1CCN(C(=O)c2ccc3c(Cl)c4c(nc3c2)CCCC4)CC1 [A038, Butyl 4-(9-chloro-5,6,7,8-tetrahydroacridine-3-carbonyl)piperazine-1-carboxylate] | 420
7 | Cc1cc(C(=O)N2C3CCCC2CN(C(=O)c2ccc4c(Cl)c5c(nc4c2)CCCC5)C3)no1 [A039, (9-Chloro-5,6,7,8-tetrahydroacridin-3-yl)(9-(5-methylisoxazole-3-carbonyl)-3,9-diazabicyclo[3.3.1]nonan-3-yl)methanone] | 1300
8 | Cc1cc(C(=O)N2C3CCCC2CN(C(=O)c2ccc4c(Cl)c5c(nc4c2)CCCC5)C3)n[nH]1 [A040, (9-Chloro-5,6,7,8-tetrahydroacridin-3-yl)(9-(5-methyl-1H-pyrazole-3-carbonyl)-3,9-diazabicyclo[3.3.1]nonan-3-yl)methanone] | 10900
9 | CCCCOC(=O)N1C2CCCC1CN(C(=O)c1ccc3c(Cl)c4c(nc3c1)CCCC4)C2 [A041, Butyl 3-(9-chloro-5,6,7,8-tetrahydroacridine-3-carbonyl)-3,9-diazabicyclo[3.3.1]nonane-9-carboxylate] | 260
10 | CCCOC(=O)N1CCN(C(=O)c2ccc3c(Cl)c4c(nc3c2)CCCC4)CC1C(=O)OC (stereo not drawn) [A042, 2-Methyl 1-propyl 4-(9-chloro-5,6,7,8-tetrahydroacridine-3-carbonyl)piperazine-1,2-dicarboxylate] | 5200
11 | CCCOC(=O)N1CC(C)N(C(=O)c2ccc3c(Cl)c4c(nc3c2)CCCC4)C(C)C1 (stereo not drawn) [A043, Propyl 4-(9-chloro-5,6,7,8-tetrahydroacridine-3-carbonyl)-3,5-dimethylpiperazine-1-carboxylate] | 550
12 | CCCOC(=O)N1CCN(C(=O)c2ccc3c(Cl)c4c(nc3c2)CC(C(=O)OC)CC4)CC1 (stereo not drawn) [A044, Methyl 9-chloro-6-(4-(propoxycarbonyl)piperazine-1-carbonyl)-1,2,3,4-tetrahydroacridine-3-carboxylate] | 620
13 | CCCOC(=O)N1CCN(C(=O)c2ccc3c(Cl)c4c(nc3c2)CCC(CN)C4)CC1 (stereo not drawn) [A045, Propyl 4-(7-(aminomethyl)-9-chloro-5,6,7,8-tetrahydroacridine-3-carbonyl)piperazine-1-carboxylate] | 1200
14 | CCCOC(=O)N1CCN(C(=O)c2ccc3c(Cl)c4c(nc3c2)CCC(C#N)C4)CC1 (stereo not drawn) [A046, Propyl 4-(9-chloro-7-cyano-5,6,7,8-tetrahydroacridine-3-carbonyl)piperazine-1-carboxylate] | 800
15 | C=CCC1CCc2c(nc3cc(C(=O)N4CCN(C(=O)OCCC)CC4)ccc3c2Cl)C1 (stereo not drawn) [A047, Propyl 4-(6-allyl-9-chloro-5,6,7,8-tetrahydroacridine-3-carbonyl)piperazine-1-carboxylate] | 600
16 | CCCOC(=O)N1CCN(C(=O)c2ccc3c(Cl)c4c(nc3c2)CCCC4)CC1C(=O)NC (stereo not drawn) [A048, Propyl 4-(9-chloro-5,6,7,8-tetrahydroacridine-3-carbonyl)-2-(methylcarbamoyl)piperazine-1-carboxylate] | 6100
17 | CCCNC(=O)N1CCN(C(=O)c2ccc3c(Cl)c4c(nc3c2)CCCC4)CC1 [A049, 4-(9-Chloro-5,6,7,8-tetrahydroacridine-3-carbonyl)-N-propylpiperazine-1-carboxamide] | 6400

Row | Compound | IC50 [nM]
18 | C=CCCC(=O)N1CCN(C(=O)c2ccc3c(Cl)c4c(nc3c2)CCCC4)CC1 [A050, 1-(4-(9-Chloro-5,6,7,8-tetrahydroacridine-3-carbonyl)piperazin-1-yl)pent-4-en-1-one] | 3500
19 | CCCOC(=O)N1CCN(C(=O)c2ccc3c(Cl)c4c(nc3c2)CCCC4)C(C(=O)OC)C1 (stereo not drawn) [A051, 3-Methyl 1-propyl 4-(9-chloro-5,6,7,8-tetrahydroacridine-3-carbonyl)piperazine-1,3-dicarboxylate] | 650
20 | CCCOC(=O)N1CCN(C(=O)c2ccc3c(Cl)c4c(nc3c2)CCCC4)CC1COC(C)=O (stereo not drawn) [A052, Propyl 2-(acetoxymethyl)-4-(9-chloro-5,6,7,8-tetrahydroacridine-3-carbonyl)piperazine-1-carboxylate] | 1800
21 | CCCOC(=O)N1CCN(C(=O)c2ccc3c(Cl)c4c(nc3c2)CC(c2ccccn2)CC4)CC1 (stereo not drawn) [A053, Propyl 4-(9-chloro-6-(pyridin-2-yl)-5,6,7,8-tetrahydroacridine-3-carbonyl)piperazine-1-carboxylate] | 240
22 | CCCOC(=O)N1CCN(C(=O)c2ccc3c(Cl)c4c(nc3c2)CCCC4)CC1COC(=O)C(C)C (stereo not drawn) [A054, Propyl 4-(9-chloro-5,6,7,8-tetrahydroacridine-3-carbonyl)-2-((isobutyryloxy)methyl)piperazine-1-carboxylate] | 5200
23 | CCCOC(=O)N1CCN(C(=O)c2ccc3c(Cl)c4c(nc3c2)CCCC4)CC1COC(=O)CCOC (stereo not drawn) [A055, Propyl 4-(9-chloro-5,6,7,8-tetrahydroacridine-3-carbonyl)-2-(((3-methoxypropanoyl)oxy)methyl)-piperazine-1-carboxylate] | 2400
24 | CCCOC(=O)N1CCN(C(=O)c2ccc3c(Cl)c4c(nc3c2)CCCC4)CC1C(N)=O (stereo not drawn) [A056, Propyl 2-carbamoyl-4-(9-chloro-5,6,7,8-tetrahydroacridine-3-carbonyl)piperazine-1-carboxylate] | 1700
25 | CCCOC(=O)N1CCN(C(=O)c2ccc3c(Cl)c4c(nc3c2)CC(c2cncnc2)CC4)CC1 (stereo not drawn) [A057, Propyl 4-(9-chloro-6-(pyrimidin-5-yl)-5,6,7,8-tetrahydroacridine-3-carbonyl)piperazine-1-carboxylate] | 310
26 | CCCOC(=O)N1CCN(C(=O)c2ccc3c(Cl)c4c(nc3c2)CC(c2ccncc2)CC4)CC1 (stereo not drawn) [A058, Propyl 4-(9-chloro-6-(pyridin-4-yl)-5,6,7,8-tetrahydroacridine-3-carbonyl)piperazine-1-carboxylate] | 190
27 | CCCOC(=O)N1CCN(C(=O)c2ccc3c(Cl)c4c(nc3c2)CCCC4)C(C(N)=O)C1 (stereo not drawn) [A059, Propyl 3-carbamoyl-4-(9-chloro-5,6,7,8-tetrahydroacridine-3-carbonyl)piperazine-1-carboxylate] | 2300
28 | CCCOC(=O)N1CCN(C(=O)c2ccc3c(Cl)c4c(nc3c2)CCCC4)CC1CCO (stereo not drawn) [A060, Propyl 4-(9-chloro-5,6,7,8-tetrahydroacridine-3-carbonyl)-2-(2-hydroxyethyl)piperazine-1-carboxylate] | 2700
29 | CCCOC(=O)N1CCN(C(=O)c2ccc3c(Cl)c4c(nc3c2)CCCC4)CC1COC(=O)CCC (stereo not drawn) [A061, Propyl 2-((butyryloxy)methyl)-4-(9-chloro-5,6,7,8-tetrahydroacridine-3-carbonyl)piperazine-1-carboxylate] | 4100
30 | CCCOC(=O)N1CCN(C(=O)c2ccc3c(Cl)c4c(nc3c2)CCC(CC(=O)OC)C4)C[C@@H]1C (stereo partly drawn) [A062, Propyl (2S)-4-(9-chloro-7-(2-methoxy-2-oxoethyl)-5,6,7,8-tetrahydroacridine-3-carbonyl)-2-methylpiperazine-1-carboxylate] | 210
31 | CCCOC(=O)N1CCN(C(=O)c2ccc3c(Cl)c4c(nc3c2)CCC(CC(=O)OC)C4)C[C@H]1C (stereo partly drawn) [A063, Propyl (2R)-4-(9-chloro-7-(2-methoxy-2-oxoethyl)-5,6,7,8-tetrahydroacridine-3-carbonyl)-2-methylpiperazine-1-carboxylate] | 250
32 | CCCOC(=O)N1CCN(C(=O)c2ccc3c(Cl)c4c(nc3c2)CCCC4)C(C(F)(F)F)C1 (stereo not drawn) [A064, Propyl 4-(9-chloro-5,6,7,8-tetrahydroacridine-3-carbonyl)-3-(trifluoromethyl)piperazine-1-carboxylate] | 700
33 | CCCOC(=O)N1CCN(C(=O)c2ccc3c(Cl)c4c(nc3c2)CC(CC#N)CC4)CC1 (stereo not drawn) [A065, Propyl 4-(9-chloro-6-(cyanomethyl)-5,6,7,8-tetrahydroacridine-3-carbonyl)piperazine-1-carboxylate] | 190
